From patent US10570129B2 (Zoetis Services LLC, priority 2015, dated 2020)

Assays:
Haemonchus contortus L3 = assay: microbe, parasite or virus in culture; assay type: cell-based; conditions: Haemonchus contortus, 96 h, read-out: HcL3 Minimal Effective Concentration (MEC)
D. immitis microfilariae = assay: Dirofilaria immitis, microfilariae (DiMF) in vitro motility assay; assay type: cell-based; conditions: Dirofilaria immitis, 72 h, read-out: DiMF minimally effective dose (MEC)

O=C(NCc1ccnc(Cl)c1)n1c2c(c3ccc(Cl)cc31)CN(C/C=C/c1ccc(F)c(Cl)c1)CC2 [Example 210, (E)-7-chloro-2-(3-(3-chloro-4-fluorophenyl)allyl)-N-((2-chloropyridin-4-yl)methyl)-1,2,3,4-tetrahydro-5H-pyrido[4,3-b]indole-5-carboxamide]
minimal effective concentration (Haemonchus contortus L3): 3.3 µM
minimal effective concentration (D. immitis microfilariae): 10 µM

O=C(NCc1ccnc(F)c1)n1c2c(c3cc(Br)ccc31)CN(C/C=C/c1ccc(F)c(Cl)c1)CC2 [Example 190, (E)-8-bromo-2-(3-(3-chloro-4-fluorophenyl)allyl)-N-((2-fluoropyridin-4-yl)methyl)-1,2,3,4-tetrahydro-5H-pyrido[4,3-b]indole-5-carboxamide]
minimal effective concentration (Haemonchus contortus L3): 1 µM
minimal effective concentration (D. immitis microfilariae): 5.7 µM

O=C(NCc1ccnc(Cl)c1)n1c2c(c3cc(N4CCSCC4)ccc31)CN(C/C=C/c1ccc(Cl)c(F)c1)CC2 [Example 510]
minimal effective concentration (Haemonchus contortus L3): > 100 µM
minimal effective concentration (D. immitis microfilariae): > 100 µM

N#Cc1ccc2c(c1)c1c(n2C(=O)NCc2ccnc(F)c2)CCN(C/C=C/c2c(F)cc(F)cc2F)C1 [Example 106, (E)-8-cyano-N-((2-fluoropyridin-4-yl)methyl)-2-(3-(2,4,6-trifluorophenyl)allyl)-1,2,3,4-tetrahydro-5H-pyrido[4,3-b]indole-5-carboxamide]
minimal effective concentration (Haemonchus contortus L3): 0.3 µM
minimal effective concentration (D. immitis microfilariae): > 100 µM

Cc1cc(/C=C/CN2CCc3c(c4cc(C#N)ccc4n3C(=O)NCc3ccnc(Cl)c3)C2)ccc1Cl [Example 96, (E)-2-(3-(4-chloro-3-methylphenyl)allyl)-N-((2-chloropyridin-4-yl)methyl)-8-cyano-1,2,3,4-tetrahydro-5H-pyrido[4,3-b]indole-5-carboxamide]
minimal effective concentration (Haemonchus contortus L3): 0.2 µM
minimal effective concentration (D. immitis microfilariae): > 100 µM

O=C(NCc1ccnc(F)c1)n1c2c(c3cc(C(F)(F)F)ccc31)CN(C/C=C/c1ccc(Cl)c(Cl)c1)CC2 [Example 422, (E)-2-(3-(3,4-dichlorophenyl)allyl)-N-((2-fluoropyridin-4-yl)methyl)-8-(trifluoromethyl)-1,2,3,4-tetrahydro-5H-pyrido[4,3-b]indole-5-carboxamide]
minimal effective concentration (Haemonchus contortus L3): 10 µM
minimal effective concentration (D. immitis microfilariae): 18.2 µM

O=C(NCc1ccnc(Cl)c1)n1c2c(c3ccc(Br)cc31)CN(C/C=C/c1ccc(Cl)c(F)c1)CC2 [Example 437, (E)-7-bromo-2-(3-(4-chloro-3-fluorophenyl)allyl)-N-((2-chloropyridin-4-yl)methyl)-1,2,3,4-tetrahydro-5H-pyrido[4,3-b]indole-5-carboxamide]
minimal effective concentration (Haemonchus contortus L3): 1 µM
minimal effective concentration (D. immitis microfilariae): 10 µM

N#Cc1ccc2c3c(n(C(=O)NCc4ccnc(F)c4)c2c1)CCN(C/C=C/c1ccc(Cl)c(F)c1)C3 [Example 51, (E)-2-(3-(4-chloro-3-fluorophenyl)allyl)-7-cyano-N-((2-fluoropyridin-4-yl)methyl)-1,2,3,4-tetrahydro-5H-pyrido[4,3-b]indole-5-carboxamide]
minimal effective concentration (Haemonchus contortus L3): 3.3 µM
minimal effective concentration (D. immitis microfilariae): 5.7 µM

N#Cc1ccc2c(c1)c1c(n2C(=O)NCc2ccnc(Cl)c2)CCN(C/C=C/c2ccc(F)cc2Br)C1 [Example 94, (E)-2-(3-(2-bromo-4-fluorophenyl)allyl)-N-((2-chloropyridin-4-yl)methyl)-8-cyano-1,2,3,4-tetrahydro-5H-pyrido[4,3-b]indole-5-carboxamide]
minimal effective concentration (Haemonchus contortus L3): 0.1 µM
minimal effective concentration (D. immitis microfilariae): > 100 µM

O=C(NCc1ccnc(Cl)c1)n1c2c(c3ccc(OC(F)(F)F)cc31)CN(C/C=C/c1c(F)cc(Cl)cc1F)CC2 [Example 339, (E)-2-(3-(4-chloro-2,6-difluorophenyl)allyl)-N-((2-chloropyridin-4-yl)-methyl)-7-(trifluoromethoxy)-1,2,3,4-tetrahydro-5H-pyrido[4,3-b]indole-5-carboxamide]
minimal effective concentration (Haemonchus contortus L3): 0.5 µM
minimal effective concentration (D. immitis microfilariae): 0.5 µM
